Source: patent publication US9023393B2, “Pharmaceutical compositions of adsorbates of amorphous drugs and lipophilic microphase-forming materials” (Bend Research, Inc., priority 2003, dated 2015)

What was measured:
Type in all cases: physicochemical
[1] = In vitro dissolution test of Drug 1 compositions in PBS pH 6.5, room temperature, 0.45 μm syringe filter, UV; 50 μg/mL if all drug dissolved
Description: Example 1 consisted of Adsorbate 1 administered in solution with a lipophilic microphase-forming material. At time 0, a 4 mg sample of Adsorbate 1 was added to 40 mL phosphate buffered saline (PBS) at pH 6.5 and 290 mOsm/kg, containing 1 mg/mL of the lipophilic microphase-forming material Cremaphor RH40 (available from BASF of Mount Olive, N.J.). The concentration of drug would have been 50 μg/mL, if all of the drug had dissolved. The test solution was stirred at room temperature in a syringe equipped with a Gelman Acrodisc 13 CR 0.45 μm PTFE filter. At each sample time, 1 to 2 mL test solution was pushed through the filter and analyzed using UV to determine the concentration of Drug 1 in solution. Samples were collected at 0.5, 1, 2, 3, 5, 10, 15, 20, 30, 45, 60, 90, 120, 150, 250 and 1200 minutes.
(§1) Control 1 consisted of Adsorbate 1 administered into PBS without the lipophilic microphase-forming material, and a sufficient amount of adsorbate was added so that the concentration of drug would have been 50 μg/mL, if all of the drug had dissolved. An in vitro dissolution test was performed with Control 1 using the procedures outlined for Example 1 and the results are shown in Table 1.
Control 2 consisted of crystalline Drug 1 administered into PBS containing 1 mg/mL of the lipophilic microphase-forming material Cremophor RH40, and a sufficient amount of Drug 1 was added so that the concentration would have been 50 μg/mL, if all of the drug had dissolved. An in vitro dissolution test was performed with Control 2 using the procedures outlined for Example 1 and the results are shown in Table 1.
as §1, with “Control 3” for “Control 1”, “of crystalline Drug” for “of Adsorbate”, “of crystalline Drug 1” for “of adsorbate”
Example 2 consisted of Adsorbate 1 administered in solution with a different lipophilic microphase-forming material. At time 0, a 4 mg sample of Adsorbate 1 was added to 40 mL phosphate buffered saline (PBS) at pH 6.5 and 290 mOsm/kg, containing 1 mg/mL of 5/2 (wt/wt) Cremaphor RH40/Capmul MCM (available from Abitec of Janesville, Wis.); the concentration of drug would have been 50 μg/mL, if all of the drug had dissolved. The test solution was stirred at room temperature in a syringe equipped with a Gelman Acrodisc 13 CR 0.45 μm PTFE filter, as described for Example 1. Samples were collected and analyzed using UV to determine the concentration of Drug 1 in solution.
Control 4 consisted of crystalline Drug 1 administered into PBS containing 5/2 (wt/wt) Cremophor RH40/Capmul MCM, and a sufficient amount of Drug 1 was added so that the concentration would have been 50 μg/mL, if all of the drug had dissolved.

[2] = In vitro dissolution test of Drug 3 compositions (Example 4 in MOPS buffer pH 7.4, controls given as PBS), room temperature, 0.45 μm syringe filter, UV; 50 μg/mL if all drug dissolved
Description: Example 4 consisted of Adsorbate 3 administered into solution with a lipophilic microphase-forming material. At time 0, an 8.02 mg sample of Adsorbate 3 was added to 40 ml of 50 mM 3-(4-morpholino propane sulfonic acid) sodium salt (MOPS) buffer at pH 7.4, containing 5 mg/mL of Tween 80 (available from ICI Americas Inc); the concentration of drug would have been 50 μg/mL, if all of the drug had dissolved. The test solution was stirred at room temperature in a syringe equipped with a Gelman Acrodisc 13 CR 0.45 μm PTFE filter, as described for Example 1. Samples were collected and analyzed using UV to determine the concentration of Drug 3 in solution.
Control 8 consisted of Adsorbate 3 administered into PBS without the lipophilic microphase-forming material, and a sufficient amount of sample was added so that the concentration of drug would have been 50 μg/mL, if all of the drug had dissolved.
Control 9 consisted of crystalline Drug 3 administered into PBS containing Tween 80, and a sufficient amount of Drug 3 was added so that the concentration would have been 50 μg/mL, if all of the drug had dissolved.
Control 10 consisted of crystalline Drug 3 administered into PBS without the lipophilic microphase-forming material, and a sufficient amount of sample was added so that the concentration of drug would have been 50 μg/mL, if all of the drug had dissolved.

[3] = In vitro dissolution test of Drug 2 compositions in PBS pH 6.5, room temperature, 0.45 μm syringe filter, UV; 50 μg/mL if all drug dissolved
Description: Example 3 consisted of Adsorbate 2 administered into solution with a lipophilic microphase-forming material. At time 0, a 6.656 mg sample of Adsorbate 2 was added to 40 mL of phosphate buffered saline (PBS) at pH 6.5 and 290 mOsm/kg, containing 1 mg/mL of PEG 6000 distearate (the concentration of drug would have been 50 μg/mL, if all of the drug had dissolved). The test solution was stirred at room temperature in a syringe equipped with a Gelman Acrodisc 13 CR 0.45 μm PTFE filter, as described for Example 1. Samples were collected and analyzed using UV to determine the concentration of Drug 2 in solution.
Control 5 consisted of Adsorbate 2 administered into PBS without the lipophilic microphase-forming material, and a sufficient amount of sample was added so that the concentration of drug would have been 50 μg/mL, if all of the drug had dissolved.
Control 6 consisted of crystalline Drug 2 administered into PBS containing PEG 6000 Distearate, and a sufficient amount of Drug 2 was added so that the concentration would have been 50 μg/mL, if all of the drug had dissolved.
Control 7 consisted of crystalline Drug 2 administered into PBS without the lipophilic microphase-forming material, and a sufficient amount of sample was added so that the concentration of drug would have been 50 μg/mL, if all of the drug had dissolved.

CCOC(=O)N1c2ccc(C(F)(F)F)cc2[C@@H](N(Cc2cc(C(F)(F)F)cc(C(F)(F)F)c2)C(=O)OC)C[C@H]1CC [Control 3, [2R,4S] 4-[(3,5-bis-trifluoromethyl-benzyl)-methoxycarbonyl-amino]-2-ethyl-6-trifluoromethyl-3,4-dihydro-2H-quinoline-1-carboxylic acid ethyl ester]
AUC90 ([1]; Drug 1, area under the aqueous concentration versus time curve after 90 minutes): <45 µg·min/mL | AUC ([1]; Drug 1, time 0 min): 0 µg·min/mL | AUC ([1]; Drug 1, time 1 min): <1 µg·min/mL | AUC ([1]; Drug 1, time 3 min): <2 µg·min/mL | AUC ([1]; Drug 1, time 5 min): <3 µg·min/mL | AUC ([1]; Drug 1, time 10 min): <5 µg·min/mL | AUC ([1]; Drug 1, time 15 min): <8 µg·min/mL | AUC ([1]; Drug 1, time 20 min): <10 µg·min/mL | AUC ([1]; Drug 1, time 30 min): <15 µg·min/mL | AUC ([1]; Drug 1, time 45 min): <23 µg·min/mL | AUC ([1]; Drug 1, time 60 min): <30 µg·min/mL | AUC ([1]; Drug 1, time 90 min): <45 µg·min/mL | AUC ([1]; Drug 1, time 120 min): <60 µg·min/mL | AUC ([1]; Drug 1, time 1200 min): <600 µg·min/mL | MDC90 ([1]; maximum concentration of Drug 1 in solution during the first 90 minutes): <0.5 µg/mL | Drug 1 Concentration ([1]; time 0 min): <0.5 µg/mL | Drug 1 Concentration ([1]; time 1 min): <0.5 µg/mL | Drug 1 Concentration ([1]; time 3 min): <0.5 µg/mL | Drug 1 Concentration ([1]; time 5 min): <0.5 µg/mL | Drug 1 Concentration ([1]; time 10 min): <0.5 µg/mL | Drug 1 Concentration ([1]; time 15 min): <0.5 µg/mL | Drug 1 Concentration ([1]; time 20 min): <0.5 µg/mL | Drug 1 Concentration ([1]; time 30 min): <0.5 µg/mL | Drug 1 Concentration ([1]; time 45 min): <0.5 µg/mL | Drug 1 Concentration ([1]; time 60 min): <0.5 µg/mL | Drug 1 Concentration ([1]; time 90 min): <0.5 µg/mL | Drug 1 Concentration ([1]; time 120 min): <0.5 µg/mL | Drug 1 Concentration ([1]; time 1200 min): <0.5 µg/mL

O=C1Cc2cc(CCN3CCN(c4nsc5ccccc45)CC3)c(Cl)cc2N1 [Control 10]
AUC90 ([2]; Drug 3, area under the aqueous concentration versus time curve after 90 minutes): <90 µg·min/mL | AUC ([2]; Drug 3, time 0 min): <1 µg·min/mL | AUC ([2]; Drug 3, time 5 min): <5 µg·min/mL | AUC ([2]; Drug 3, time 10 min): <10 µg·min/mL | AUC ([2]; Drug 3, time 20 min): <20 µg·min/mL | AUC ([2]; Drug 3, time 40 min): <40 µg·min/mL | AUC ([2]; Drug 3, time 90 min): <90 µg·min/mL | AUC ([2]; Drug 3, time 1260 min): <1260 µg·min/mL | MDC90 ([2]; maximum concentration of Drug 3 in solution during the first 90 minutes): <1 µg/mL | Drug 3 Concentration ([2]; time 0 min): <1 µg/mL | Drug 3 Concentration ([2]; time 5 min): <1 µg/mL | Drug 3 Concentration ([2]; time 10 min): <1 µg/mL | Drug 3 Concentration ([2]; time 20 min): <1 µg/mL | Drug 3 Concentration ([2]; time 40 min): <1 µg/mL | Drug 3 Concentration ([2]; time 90 min): <1 µg/mL | Drug 3 Concentration ([2]; time 1260 min): <1 µg/mL

CC[C@@H]1C[C@H](N(Cc2cc(C(F)(F)F)cc(C(F)(F)F)c2)C(=O)OC)c2cc(C(F)(F)F)ccc2N1C(=O)OC(C)C [Control 7, [2R,4S] 4-[(3,5-bis-trifluoromethyl-benzyl)-methoxycarbonyl-amino]-2-ethyl-6-trifluoromethyl-3,4-dihydro-2H-quinoline-1-carboxylic acid isopropyl ester]
AUC90 ([3]; Drug 2, area under the aqueous concentration versus time curve after 90 minutes): <45 µg·min/mL | AUC ([3]; Drug 2, time 0 min): 0 µg·min/mL | AUC ([3]; Drug 2, time 1 min): <1 µg·min/mL | AUC ([3]; Drug 2, time 2 min): <1 µg·min/mL | AUC ([3]; Drug 2, time 3 min): <2 µg·min/mL | AUC ([3]; Drug 2, time 5 min): <3 µg·min/mL | AUC ([3]; Drug 2, time 10 min): <5 µg·min/mL | AUC ([3]; Drug 2, time 15 min): <8 µg·min/mL | AUC ([3]; Drug 2, time 20 min): <10 µg·min/mL | AUC ([3]; Drug 2, time 30 min): <15 µg·min/mL | AUC ([3]; Drug 2, time 45 min): <23 µg·min/mL | AUC ([3]; Drug 2, time 64 min): <32 µg·min/mL | AUC ([3]; Drug 2, time 90 min): <45 µg·min/mL | AUC ([3]; Drug 2, time 160 min): <80 µg·min/mL | AUC ([3]; Drug 2, time 1200 min): <600 µg·min/mL | MDC90 ([3]; maximum concentration of Drug 2 in solution during the first 90 minutes): <0.5 µg/mL | Drug 2 Concentration ([3]; time 0 min): <0.5 µg/mL | Drug 2 Concentration ([3]; time 1 min): <0.5 µg/mL | Drug 2 Concentration ([3]; time 2 min): <0.5 µg/mL | Drug 2 Concentration ([3]; time 3 min): <0.5 µg/mL | Drug 2 Concentration ([3]; time 5 min): <0.5 µg/mL | Drug 2 Concentration ([3]; time 10 min): <0.5 µg/mL | Drug 2 Concentration ([3]; time 15 min): <0.5 µg/mL | Drug 2 Concentration ([3]; time 20 min): <0.5 µg/mL | Drug 2 Concentration ([3]; time 30 min): <0.5 µg/mL | Drug 2 Concentration ([3]; time 45 min): <0.5 µg/mL | Drug 2 Concentration ([3]; time 64 min): <0.5 µg/mL | Drug 2 Concentration ([3]; time 90 min): <0.5 µg/mL | Drug 2 Concentration ([3]; time 160 min): <0.5 µg/mL | Drug 2 Concentration ([3]; time 1200 min): <0.5 µg/mL
